Assay results: US12098133B2, “Hydantoin containing deoxyuridine triphosphatase inhibitors” (CV6 Therapeutics (NI) Limited, priority 2015, dated 2024)

Tests used:
[1] = tested on: colorectal (HCT116 and SW620) cell line models; assay: MTS growth inhibition assay; type: cell-based; settings: 5-FU between 0 and 100 μmol/L; both colorectal cancer cell lines (HCT116 and SW620)
Procedure: The Cell Titer AQueous MTS assay (Promega) is carried out according to the manufacturers guidelines. […] Fraction affected (FA) is calculated from the percent growth inhibition: FA=(100−% growth inhibition)/100.
Test compounds are evaluated for their antitumor activity in colorectal cancer cells using the MTS growth inhibition assay. HCT116 and SW620 cells are exposed to increasing concentrations of each agent for 72 hours and growth inhibition is directly compared to vehicle-treated controls. The NSCLC cell lines A549 and H1299 are exposed to increasing concentrations of each agent for 72 hours and growth inhibition is directly compared to vehicle-treated controls.
Simultaneous treatment with increasing concentrations of 5-FU and a test compound at fixed concentrations of 25 μmol/L is determined.

[2] = tested on: colorectal (HCT116), breast (MCF-7) and non-small cell lung (H1299, A549, H358 and H460) cell line models; assay: Colony forming assay; type: cell-based; settings: FUdR between 0.5 and 2.5 μmol/L; all cell lines evaluated
Procedure: Colony forming assay showing the ability of colon (SW620, HCT116), non-small cell lung (A549, H460, H1299 and H358) and breast (MCF7) cancer cells to survive and proliferate following transient 24 hour exposure to test compounds, FUdR and combinations are determined. Specifically, cells are seeded at densities between 50 and 100 cells/well in 24-well plates. Twenty-four hours later, cells are treated with increasing concentrations of a rtest compound, a fixed dose of FUdR and combinations of these. After 24 hours, drug is removed, cells are rinsed and allowed to outgrow for 10-14 days. At the conclusion of the outgrowth, cells are fixed in 60% ice cold methanol and stained with 0.1% crystal violet, scanned and counted. Data is presented as percentage of untreated controls (mean±SD). Fraction affected and combination indexes are calculated according to the method of Chou and Talalay where <1 is indicative of a synergistic drug interaction.
Colony forming assays are performed to evaluate the effectiveness of test compounds alone and in combination with the fluoropyrimidine thymidylate synthase (TS) inhibitor fluorodeoxyuridine (FUdR) at reducing cancer cell viability in colorectal (HCT116), breast (MCF-7) and non-small cell lung (H1299, A549, H358 and H460) cell line models. […]

O=c1[nH]cc(F)c(=O)[nH]1 [5-FU, 5-fluorouracil] was tested, and the growth inhibition [1] was “dose-dependent increases in growth inhibition”.

For O=c1[nH]c(=O)n([C@H]2C[C@H](O)[C@@H](CO)O2)cc1F [FUdR, fluorodeoxyuridine], the colonies formed [2] was “dose-dependent decreases in colonies formed”.
